This note sets out measurements from ChEMBL document CHEMBL3632483, “Synthesis and pharmacological evaluation of piperidine (piperazine)-substituted benzoxazole derivatives as multi-target antipsychotics” (Bioorg Med Chem Lett, 2015).

Molecules are shown by their SMILES. The source made the active and inactive calls. The calls are words filed in the database; no cut-off is given here.

The target of data set [1] is T1, 5-hydroxytryptamine receptor 2C (Rattus norvegicus, UniProt P08909).
T1 sequence (P08909 whole entry): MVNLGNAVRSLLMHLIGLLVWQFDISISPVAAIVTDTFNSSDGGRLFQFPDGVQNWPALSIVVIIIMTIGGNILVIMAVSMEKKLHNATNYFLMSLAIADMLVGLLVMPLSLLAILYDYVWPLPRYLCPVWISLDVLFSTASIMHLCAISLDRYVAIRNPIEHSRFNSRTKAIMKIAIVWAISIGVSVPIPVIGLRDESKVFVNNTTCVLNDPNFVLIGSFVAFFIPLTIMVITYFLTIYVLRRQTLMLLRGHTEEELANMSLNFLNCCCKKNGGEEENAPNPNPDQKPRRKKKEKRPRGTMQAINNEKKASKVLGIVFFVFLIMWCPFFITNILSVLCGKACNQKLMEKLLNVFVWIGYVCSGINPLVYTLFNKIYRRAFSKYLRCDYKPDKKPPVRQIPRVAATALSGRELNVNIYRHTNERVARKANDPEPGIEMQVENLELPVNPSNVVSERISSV
The data set can be described thus: Displacement of [3H]mesulergine from 5-HT2C receptor in rat cerebral cortex homogenates after 60 mins by liquid scintillation counting. It is filed as tissue-based. On the technique in general: In a radioligand displacement assay an active substance lowers the binding of a labelled ligand.

Data set [2] has as its target T2, Adrenergic receptor alpha-1 (Rattus norvegicus, UniProt P15823+P23944+P43140).
T2 sequence (P15823 whole entry): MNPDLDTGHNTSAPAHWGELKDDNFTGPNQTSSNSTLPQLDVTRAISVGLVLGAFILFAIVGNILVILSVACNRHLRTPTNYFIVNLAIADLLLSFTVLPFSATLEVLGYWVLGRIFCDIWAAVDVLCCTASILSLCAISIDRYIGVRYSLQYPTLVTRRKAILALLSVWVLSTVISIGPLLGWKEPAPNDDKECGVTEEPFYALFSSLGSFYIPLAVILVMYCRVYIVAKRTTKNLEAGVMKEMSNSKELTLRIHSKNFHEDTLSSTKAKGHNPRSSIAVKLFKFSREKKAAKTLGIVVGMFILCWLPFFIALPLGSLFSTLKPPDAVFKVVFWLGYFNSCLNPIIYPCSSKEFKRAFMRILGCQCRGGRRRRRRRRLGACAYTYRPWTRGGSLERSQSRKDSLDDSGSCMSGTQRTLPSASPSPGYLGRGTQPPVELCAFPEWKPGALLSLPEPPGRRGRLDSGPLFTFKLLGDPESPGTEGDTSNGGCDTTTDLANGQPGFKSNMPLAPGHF
T2 sequence (P23944 whole entry): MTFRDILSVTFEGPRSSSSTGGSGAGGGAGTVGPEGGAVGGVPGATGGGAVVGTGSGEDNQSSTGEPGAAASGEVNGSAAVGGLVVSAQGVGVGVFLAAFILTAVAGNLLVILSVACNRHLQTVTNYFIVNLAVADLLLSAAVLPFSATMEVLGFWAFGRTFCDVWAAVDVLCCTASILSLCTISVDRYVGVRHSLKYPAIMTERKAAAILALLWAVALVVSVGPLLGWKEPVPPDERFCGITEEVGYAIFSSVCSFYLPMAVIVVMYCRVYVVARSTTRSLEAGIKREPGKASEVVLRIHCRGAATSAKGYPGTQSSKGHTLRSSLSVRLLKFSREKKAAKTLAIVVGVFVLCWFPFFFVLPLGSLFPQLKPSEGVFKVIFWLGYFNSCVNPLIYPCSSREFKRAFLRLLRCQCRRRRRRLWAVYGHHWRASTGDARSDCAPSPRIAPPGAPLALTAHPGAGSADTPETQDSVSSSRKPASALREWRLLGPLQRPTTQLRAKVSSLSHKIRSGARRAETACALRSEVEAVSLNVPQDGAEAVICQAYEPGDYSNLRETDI
T2 sequence (P43140 whole entry): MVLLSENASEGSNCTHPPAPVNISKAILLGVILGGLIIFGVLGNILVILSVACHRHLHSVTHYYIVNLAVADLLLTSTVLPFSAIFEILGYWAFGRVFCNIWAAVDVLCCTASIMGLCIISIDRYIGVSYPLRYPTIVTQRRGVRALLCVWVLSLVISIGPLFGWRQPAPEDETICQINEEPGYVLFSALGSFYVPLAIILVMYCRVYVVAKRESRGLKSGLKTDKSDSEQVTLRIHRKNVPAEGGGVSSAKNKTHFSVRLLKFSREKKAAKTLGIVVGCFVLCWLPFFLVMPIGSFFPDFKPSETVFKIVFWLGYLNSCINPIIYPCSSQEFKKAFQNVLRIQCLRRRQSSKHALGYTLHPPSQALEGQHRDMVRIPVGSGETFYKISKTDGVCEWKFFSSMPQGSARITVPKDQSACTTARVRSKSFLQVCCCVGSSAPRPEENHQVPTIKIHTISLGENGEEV
The data set can be described thus: Displacement of [3H]prazosin from adrenergic alpha1 receptor in rat cerebral cortex homogenates after 60 mins by liquid scintillation counting. Type of data set: tissue-based.

Data set [3] has as its target 5-hydroxytryptamine receptor 7 (Rattus norvegicus, UniProt P32305). The data set can be described thus: biochemical.
Description: Displacement of [3H]-5-CT from 5-HT7 receptor in rat hypothalamus homogenates after 120 mins by liquid scintillation counting
The test system of data set [4] is Mus musculus. The data set can be described thus: Antipsychotic activity in Chinese Kun Ming mouse assessed as inhibition of apomorphine-induced reaching behaviour at 1 mg/kg, po administered 30 mins before apomorphine challenge measured up to 30 mins. It is filed as functional, organism-based.
Data set [5] deals with Mus musculus. The data set can be described thus: Toxicity in po dosed Chinese Kun Ming mouse assessed as induction of catalepsy by measuring immobility score of 30 seconds administered 30 mins before first assessment. It is filed as organism-based. The conditions noted are these: in vivo, 0.5 h.
The test system of data set [6] is Mus musculus. The data set can be described thus: Antipsychotic activity in Chinese Kun Ming mouse assessed as inhibition of apomorphine-induced climbing behaviour at 1 mg/kg, po administered 30 mins before apomorphine challenge measured up to 30 mins. It is filed as functional, organism-based.
Data set [7] has as its system Mus musculus. The data set can be described thus: Antipsychotic activity in po dosed Chinese Kun Ming mouse assessed as inhibition of apomorphine-induced climbing administered 30 mins before apomorphine challenge measured up to 30 mins. Type of data set: functional.
The next data set has as its target Histamine H1 receptor (Cavia porcellus, UniProt P31389). Nature of the data set: Displacement of [3H]mepyramine from histamine H1 receptor in guinea pig cerebellum homogenates after 60 mins by liquid scintillation counting.
In data set [8] the test system is Mus musculus. Nature of the data set: Neurotoxicity in Chinese Kun Ming mouse assessed as locomotor activity by measuring total distance traveled at 3 mg/kg, po administered 1 hr before test measured for 10 mins (reference value: 13263.8 +/- 8034.2 millimeter). It is filed as toxicity, organism-based. The conditions noted are these: in vivo.
The subject of data set [9] is Mus musculus. Nature of the data set: Antipsychotic activity in po dosed Chinese Kun Ming mouse assessed as inhibition of DOI-induced head twitch administered 60 mins before DOI challenge measured up to 15 mins. Type of data set: functional.
Data set [10] deals with Mus musculus. The data set can be described thus: Neurotoxicity in Chinese Kun Ming mouse assessed as locomotor activity by measuring total distance traveled at 1 mg/kg, po administered 1 hr before test measured for 10 mins (reference value: 13263.8 +/- 8034.2 millimeter). It is filed as toxicity, organism-based. Conditions: in vivo.
In data set [11] the test system is Mus musculus. Nature of the data set: Neurotoxicity in Chinese Kun Ming mouse assessed as locomotor activity by measuring total distance traveled at 10 mg/kg, po administered 1 hr before test measured for 10 mins (reference value: 13263.8 +/- 8034.2 millimeter). It is filed as toxicity, organism-based. Conditions: in vivo.

In general, Ki refers to a dissociation constant, usually derived from enzyme kinetics or from competition with a known ligand. A high value points to weaker binding. The term ED50 denotes the midpoint of the dose-response relation.

5-hydroxytryptamine receptor 7, sequence (P32305 whole entry): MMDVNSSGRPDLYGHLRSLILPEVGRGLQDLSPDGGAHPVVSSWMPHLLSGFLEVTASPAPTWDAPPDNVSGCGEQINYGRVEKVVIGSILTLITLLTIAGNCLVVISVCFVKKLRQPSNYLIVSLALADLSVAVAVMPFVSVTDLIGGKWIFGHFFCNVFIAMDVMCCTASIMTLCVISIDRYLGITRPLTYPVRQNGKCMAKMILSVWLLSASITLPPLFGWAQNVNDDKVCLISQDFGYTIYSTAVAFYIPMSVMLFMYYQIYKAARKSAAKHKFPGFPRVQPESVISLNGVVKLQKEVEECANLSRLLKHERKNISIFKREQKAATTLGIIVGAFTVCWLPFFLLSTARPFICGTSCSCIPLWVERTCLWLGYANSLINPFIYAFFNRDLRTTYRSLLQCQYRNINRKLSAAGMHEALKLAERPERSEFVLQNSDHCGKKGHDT
Histamine H1 receptor, sequence (P31389 whole entry): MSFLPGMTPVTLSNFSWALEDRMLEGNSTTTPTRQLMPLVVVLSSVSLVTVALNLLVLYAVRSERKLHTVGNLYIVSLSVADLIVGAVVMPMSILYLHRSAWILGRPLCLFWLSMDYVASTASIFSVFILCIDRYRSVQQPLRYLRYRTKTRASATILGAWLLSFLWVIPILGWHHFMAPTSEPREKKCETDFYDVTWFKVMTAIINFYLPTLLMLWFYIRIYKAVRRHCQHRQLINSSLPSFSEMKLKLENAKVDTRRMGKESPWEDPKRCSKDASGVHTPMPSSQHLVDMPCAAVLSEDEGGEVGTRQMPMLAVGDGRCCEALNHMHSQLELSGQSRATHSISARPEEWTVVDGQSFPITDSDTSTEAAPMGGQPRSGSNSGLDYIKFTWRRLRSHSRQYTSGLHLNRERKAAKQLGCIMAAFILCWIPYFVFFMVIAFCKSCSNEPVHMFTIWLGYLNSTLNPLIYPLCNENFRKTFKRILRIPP

Consider `Fc1ccc2c(C3CCN(CCCOc4ccc(-c5nc6ccccc6o5)cc4)CC3)noc2c1`, for which the Ki was found to be 0.186 µM in data set [1], 0.095 µM in data set [2] and 0.765 µM in data set [3].

Regarding `Fc1ccc2c(C3CCN(CCCOc4ccc(Cc5nc6ccccc6o5)cc4)CC3)noc2c1`, the inhibition entry with Mus musculus [4] and in the data set on Mus musculus [6] was “Active” throughout. The ED50 with Mus musculus [5] was 70.5 mg/kg; in the data set on Mus musculus [7] it was 0.86 mg/kg; with Mus musculus [9] it was 0.71 mg/kg. For the same compound, the Ki in data set [1] stood at 1.99 µM; at Histamine H1 receptor it was 3.15 µM; in data set [2], 3.276 µM; in [3] it was 0.0189 µM. The values for the Activity with Mus musculus [8], with Mus musculus [10] and in the data set with Mus musculus [11] were 10447.5 mm, 13046.7 mm and 9492.4 mm, respectively. The inhibition result in the data set with Mus musculus [9] was “Dose-dependent effect”.
